We go through 9 compounds from patent US10590056B2, “ERR modulators and uses thereof” (CITY OF HOPE, priority 2017, dated 2020).

Data set [1] addresses T1, human ERRα (Homo sapiens, UniProt P11474).
T1 construct: expressed in transfected cells; host or cells: CV-1 cells, cytomegalovirus-driven expression vectors
T1 sequence (P11474 193-421 limits assumed): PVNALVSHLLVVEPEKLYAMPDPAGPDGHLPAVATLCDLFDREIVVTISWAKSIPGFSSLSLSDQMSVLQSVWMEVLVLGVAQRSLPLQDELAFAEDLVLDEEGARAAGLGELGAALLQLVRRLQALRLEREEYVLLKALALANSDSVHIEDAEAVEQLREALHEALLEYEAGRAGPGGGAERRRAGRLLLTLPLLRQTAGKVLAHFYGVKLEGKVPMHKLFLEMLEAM
The data set can be described thus: GAL4 DBD-ERRα LBD cotransfection luciferase reporter assay in CV-1 cells. The following applies: for pIC50: CV-1 cells co-transfected with reporter and expression vectors, human ERRα LBD; for activity on ERRα, in words: cell-based screening; for effect on ERRα transcriptional activity: up to 3 μM. The format is cell-based. How it is done: (§1) To assess the functional transcriptional activity of these compounds, cell-based assays using chimeric receptor Gal4 DNA-binding domain (DBD)-NR ligand binding domain cotransfection assay (LBDs of ERRα, ERRγ, and ERRβ) were performed. As an initial screen to determine the ERRγ and ERRβ inhibitory activity and selectivity, all compounds were evaluated for in vitro potency and selectivity by transfection testing, using CV-1 cells transfected with human and mouse ERRs. MH100×4 is a luciferase reporter with four copies of a GAL4 UASG response element, where GAL-I refers to the ligand-binding domain of the indicated receptor fused to the C-terminus of the GAL4 DNA-binding domain. Assays were performed using a Biomek automated workstation in which the genes for the nuclear receptor, as well as a plasmid containing a response element upstream of a luciferase cDNA, are transfected into CV-1 cells. Compounds were evaluated for their ability to inhibit human ERRs at 0.03, 0.1, 0.5, 1, 2.5, 3, and 10 μM test concentrations. […] Z-4-OHT used as a known ERRγ and ERRβ inverse agonist to compare the constitutive activity of unliganded ERRγ and ERRβ.
(§2) Cell culture. CV-1 cells were grown in Dulbecco's modified Eagle's medium supplemented with 10% resin charcoalstripped fetal bovine serum, 50 U/ml penicillin G, and 50 μg/ml streptomycin sulfate (DMEM-FBS) at 37° C. in 5% CO2. One day prior to transfection, cells were plated to 50%-80% confluence using phenol red free DMEM-FBS. The adenoviral construct, Ad-GFP and Ad-ERRα have been described.^55 Propagation of recombinant adenovirus was performed in 293 cells as described.^11
(§3) Cell based transactivation assays were performed in CV-1 cells as described.^49 ERR activity was assayed with a GAL4 reporter construct and fusion proteins containing the ligand binding domains of human ERRα, human ERRβ and mouse ERRγ linked to the DNA binding domain of yeast GAL4. Human ERα and ERβ were examined as full-length proteins using an estrogen receptor responsive reporter construct. Reporter constructs (300 ng/10^5 cells) and cytomegalovirus-driven expression vectors (20-50 ng/10^5 cells) were added as indicated along with CMX-β-gal (500 ng/10^5 cells) as an internal control. Cells were transiently transfected by Lipofectamine as described.^56 Cells were incubated with DNA complexed liposomes for 2 hours and subsequently treated for approximately 45 hr with phenol red free DMEM FBS containing the indicated compounds. After exposure to ligand, the cells were harvested and assayed for luciferase and β-galactosidase activity. […] Fold activation is reported.
For orientation: A reporter such as luciferase makes a cellular process visible.

The target of data set [2] is T2, human ERRβ (Homo sapiens, UniProt O95718).
T2 construct: expressed in transfected cells; host or cells: CV-1 cells, cytomegalovirus-driven expression vectors
T2 sequence (O95718 208-432 limits assumed): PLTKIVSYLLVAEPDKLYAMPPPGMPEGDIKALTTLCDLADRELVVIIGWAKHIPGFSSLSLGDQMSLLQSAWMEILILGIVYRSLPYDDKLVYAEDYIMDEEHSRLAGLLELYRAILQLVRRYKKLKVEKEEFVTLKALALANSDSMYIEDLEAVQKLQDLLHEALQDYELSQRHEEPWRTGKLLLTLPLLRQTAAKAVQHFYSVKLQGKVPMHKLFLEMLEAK
The data set can be described thus: GAL4 DBD-ERRβ LBD cotransfection luciferase reporter assay in CV-1 cells. The format is cell-based. The following applies: for identified as (inverse agonist class / selectivity): ERRα, ERRβ, ERRγ transactivation panel; for activity on ERRβ, in words: cell-based cotransfection assay. The method, then: as §1, §2, §3

For data set [3], the target named is T3, mouse ERRγ (Mus musculus, UniProt P62509).
T3 construct: expressed in transfected cells; host or cells: CV-1 cells, cytomegalovirus-driven expression vectors
T3 sequence (P62509 233-457 limits assumed): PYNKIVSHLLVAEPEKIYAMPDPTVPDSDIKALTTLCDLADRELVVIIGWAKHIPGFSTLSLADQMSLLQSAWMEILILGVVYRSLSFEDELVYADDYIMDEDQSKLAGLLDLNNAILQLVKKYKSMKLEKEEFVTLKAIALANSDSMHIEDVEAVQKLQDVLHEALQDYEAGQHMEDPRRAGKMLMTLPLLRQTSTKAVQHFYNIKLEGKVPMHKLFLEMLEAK
The data set can be described thus: GAL4 DBD-ERRγ LBD cotransfection luciferase reporter assay in CV-1 cells. The following applies: for pIC50: CV-1 cells co-transfected with reporter and expression vectors, mouse ERRγ LBD; for activity on ERRγ, in words: cell-based cotransfection assay, 1g, 1h: at the higher dose; for effect on ERRγ transcriptional activity: up to 3 μM. The data set is classed as cell-based. The method, then:
as §1, §2, §3

Data set [4] deals with T4, Human ERα (Homo sapiens, UniProt P03372).
T4 construct: Human ERα and ERβ were examined as full-length proteins using an estrogen receptor responsive reporter construct; expressed in transfected cells; host or cells: CV-1 cells, cytomegalovirus-driven expression vectors
T4 sequence (P03372 1-595): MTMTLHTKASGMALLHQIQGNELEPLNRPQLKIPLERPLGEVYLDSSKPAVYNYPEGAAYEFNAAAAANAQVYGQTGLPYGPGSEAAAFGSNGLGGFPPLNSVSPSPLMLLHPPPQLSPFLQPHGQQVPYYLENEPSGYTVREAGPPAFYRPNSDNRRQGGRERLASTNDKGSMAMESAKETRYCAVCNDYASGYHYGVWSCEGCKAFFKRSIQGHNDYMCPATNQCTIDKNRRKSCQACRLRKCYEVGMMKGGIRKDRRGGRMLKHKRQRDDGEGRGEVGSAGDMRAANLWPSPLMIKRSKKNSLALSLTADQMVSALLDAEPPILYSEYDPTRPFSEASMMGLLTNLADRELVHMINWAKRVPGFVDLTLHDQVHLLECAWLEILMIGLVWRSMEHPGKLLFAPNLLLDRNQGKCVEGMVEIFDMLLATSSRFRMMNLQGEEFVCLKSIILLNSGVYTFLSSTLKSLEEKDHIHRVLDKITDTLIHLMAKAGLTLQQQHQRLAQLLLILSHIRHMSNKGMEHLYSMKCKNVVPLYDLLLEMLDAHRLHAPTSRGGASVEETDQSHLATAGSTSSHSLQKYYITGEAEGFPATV
Briefly: Full-length ERα, estrogen receptor responsive reporter assay in CV-1 cells. The note with it: up to 3 μM. The format is cell-based. How it is done: (§4) Cell based transactivation assays were performed in CV-1 cells as described.^49 ERR activity was assayed with a GAL4 reporter construct and fusion proteins containing the ligand binding domains of human ERRα, human ERRβ and mouse ERRγ linked to the DNA binding domain of yeast GAL4. Human ERα and ERβ were examined as full-length proteins using an estrogen receptor responsive reporter construct. Reporter constructs (300 ng/10^5 cells) and cytomegalovirus-driven expression vectors (20-50 ng/10^5 cells) were added as indicated along with CMX-β-gal (500 ng/10^5 cells) as an internal control. Cells were transiently transfected by Lipofectamine as described.^56 Cells were incubated with DNA complexed liposomes for 2 hours and subsequently treated for approximately 45 hr with phenol red free DMEM FBS containing the indicated compounds. After exposure to ligand, the cells were harvested and assayed for luciferase and β-galactosidase activity. All points were assayed in triplicate and varied by less than 15%. Each experiment was repeated three or more times with similar results. Fold activation is reported.

Data set [5] concerns the target T5, Human ERβ (Homo sapiens, UniProt Q92731).
T5 construct: Human ERα and ERβ were examined as full-length proteins using an estrogen receptor responsive reporter construct; expressed in transfected cells; host or cells: CV-1 cells, cytomegalovirus-driven expression vectors
Briefly: Full-length ERβ, estrogen receptor responsive reporter assay in CV-1 cells. The data set is classed as cell-based. The following applies: up to 3 μM. How it is done: as §4

Data set [6] deals with ER. The following applies: % of the affinity of the Z isomer of 4-OHT; cited from earlier work.
[7] abbreviates: CV-1 cells co-transfected with reporter and expression vectors, human ERRβ LBD.

pIC50: −log10 of the molar value. “Also recorded” adds a separate entry of the source.

T5 sequence (Q92731 whole entry): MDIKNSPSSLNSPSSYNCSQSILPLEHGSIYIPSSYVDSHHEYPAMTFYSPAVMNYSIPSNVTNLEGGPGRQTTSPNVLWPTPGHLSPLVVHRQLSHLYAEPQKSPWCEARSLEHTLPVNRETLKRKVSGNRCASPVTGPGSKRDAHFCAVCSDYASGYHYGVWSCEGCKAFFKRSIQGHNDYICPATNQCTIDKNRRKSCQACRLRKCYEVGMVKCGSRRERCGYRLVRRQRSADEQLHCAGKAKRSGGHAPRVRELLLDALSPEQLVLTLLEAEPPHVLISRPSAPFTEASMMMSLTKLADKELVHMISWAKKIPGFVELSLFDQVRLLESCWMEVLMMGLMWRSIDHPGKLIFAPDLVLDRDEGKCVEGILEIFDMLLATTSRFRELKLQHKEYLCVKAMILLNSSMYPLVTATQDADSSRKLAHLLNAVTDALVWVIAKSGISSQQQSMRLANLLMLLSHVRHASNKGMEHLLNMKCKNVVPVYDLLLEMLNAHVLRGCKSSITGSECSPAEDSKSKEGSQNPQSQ

What is called melting point is the temperature, or range, at which the solid turns liquid. `CCCC(=C(c1ccc(O)cc1)c1ccc(O)cc1)c1ccccc1` [Compound 1b, 1,1-Bis (4-hydroxyphenyl)-2-phenylpent-1-ene] had a melting point of 192.7 °C.
Usually pIC50 stands for the negative decadic logarithm of the IC50, by convention in mol/L. High values mean a low IC50, low ones a high IC50. As to `COC(=O)CCC(=C(c1ccc(O)cc1)c1ccc(O)cc1)c1ccccc1` [Compound 1g, 5,5-Bis (4-hydroxyphenyl)-4-phenyl-pent-4-enoic acid methyl ester], in data set [1], the pIC50 was less than 5.00 and the “activity on ERRα, in words” value was “not active”. For the same compound, the pIC50 in data set [2] (setting [7]) is 6.22. Also, the “identified as (inverse agonist class / selectivity)” value in data set [2] is “selective inverse agonists for the ERRβ”. Further, in data set [3], the pIC50 is 5.19 and the “activity on ERRγ, in words” value is reported as “not active”.
With `COC(=O)C(C)CC(=C(c1ccc(O)cc1)c1ccc(O)cc1)c1ccccc1` (stereo not shown) [Compound 1h, 5,5-Bis (4-hydroxyphenyl)-2-methyl-4-phenyl-pent-4-enoic acid methyl ester], in data set [1], the pIC50 is less than 5.00 and the “activity on ERRα, in words” value is on record as “not active”. In data set [2] (setting [7]), this compound showed a pIC50 of 6.52. Besides, the “identified as (inverse agonist class / selectivity)” value in data set [2] was “selective inverse agonists for the ERRβ”. In data set [3], the pIC50 was 5.26 and the “activity on ERRγ, in words” value is “not active”.
Consider `CC(C)/C(=C(\c1ccc(O)cc1)c1ccc(OCCN(C)C)cc1)c1ccccc1` [Compound 3a, (Z)-4-[1-(4-Dimethylaminoethoxy-phenyl)-3-methyl-2-phenyl-but-1-enyl]-phenol], for which the values for the pIC50 in data set [1], in data set [2] (setting [7]) and in data set [3] were less than 5.00, 6.68 and 6.54, respectively. For the same compound, the “identified as (inverse agonist class / selectivity)” value in data set [2] was “ERRβ and ERRγ inverse agonists”. The “fold greater potency than Z-4-OHT on ERRβ” value in data set [2] (compared to Z-4-OHT) is reported as 3 fold. For the same compound, the “fold greater potency than Z-4-OHT on ERRγ” value in data set [3] (compared to Z-4-OHT) was found to be 3 fold.
Consider `COC(=O)CC/C(=C(\c1ccc(O)cc1)c1ccc(OCCN(C)C)cc1)c1ccccc1` [Compound 3g, (Z)-5-[4-(2-Dimethylamino-ethoxy)-phenyl]-5-(4-hydroxyphenyl)-4-phenyl-pent-4-enoic acid methyl ester], for which the pIC50 was less than 5.00 in data set [1], 6.46 in data set [2] (setting [7]) and 5.46 in data set [3]. In addition, the “effect on ERRα transcriptional activity” value in data set [1] is “no effect”. The “effect on ERRγ transcriptional activity” value in data set [3] is listed as “no effect”. Further, the “effect on ERα transcriptional activity” value in data set [4] is “no effect”. In addition, in data set [5], the “effect on ERβ transcriptional activity” value is “no effect”.
Turning to `COC(=O)C(C)C/C(=C(\c1ccc(O)cc1)c1ccc(OCCN(C)C)cc1)c1ccccc1` (stereo not shown) [Compound 3h, (Z)-5-[4-(2-Dimethylamino-ethoxy)-phenyl]-5-(4-hydroxyphenyl)-2-methyl-4-phenyl-pent-4-enoic acid methyl ester], in data set [1], the pIC50 is less than 5.00 and the “effect on ERRα transcriptional activity” value is given as “no effect”. Moreover, in data set [2], the “identified as (inverse agonist class / selectivity)” value is given as “selective inverse agonist for the ERRβ; also recorded: ERRβ inverse agonists”. The pIC50 in data set [2] (cell-based transactivation in CV-1 cells) was 7.30. Further, in data set [3], the pIC50 is 5.56 and the “effect on ERRγ transcriptional activity” value was “no effect”. The “effect on ERα transcriptional activity” value in data set [4] is “no effect”. For the same compound, in data set [5], the “effect on ERβ transcriptional activity” value was “no effect”.
For `CC(CO)C/C(=C(\c1ccc(O)cc1)c1ccc(OCCN(C)C)cc1)c1ccccc1` (stereo not shown) [Compound 3n, (Z)-4-{1-[4-(2-Dimethylamino-ethoxy)-phenyl]-5-hydroxy-4-methyl-2-phenyl-pent-1-enyl}-phenol], the pIC50 in data set [1] is less than 5.00; in data set [2] (setting [7]) it was 5.65; in data set [3], 5.60. Also, the “identified as (inverse agonist class / selectivity)” value in data set [2] was “ERRβ and ERRγ inverse agonists”.
As for `CC/C(=C(/c1ccc(O)cc1)c1ccc(OCCN(C)C)cc1)c1ccccc1` [Compound E-4-OHT, reference compound], the “activity on ERRβ, in words” value in data set [2] is recorded as “much less active”. The “activity on ERRγ, in words” value in data set [3] was “much less active”. Also, the “affinity for the ER relative to the Z isomer” value in data set [6] is “about 5%”.
Consider `CC/C(=C(\c1ccc(O)cc1)c1ccc(OCCN(C)C)cc1)c1ccccc1` [Compound Z-4-OHT, reference compound], for which the pIC50 is less than 5.00 in data set [1], 6.19 in data set [2] (setting [7]) and 6.22 in data set [3]. In addition, in data set [2], the “activity on ERRβ, in words” value is “has the required activity; also recorded: more potent than E-4-OHT”. Besides, the “activity on ERRγ, in words” value in data set [3] was “has the required activity; also recorded: more potent than E-4-OHT”.
